Assay results: a melting point compilation (Tetko et al.; mined from patent text by program, amines drawn as free bases though some values may be those of a salt)

Row | melting point | SMILES
1 | 204 to 209 °C | COc1cc(O)c(-c2ccccc2)nn1
2 | 175 °C | O=C(NC1CCc2ccccc2C1=O)c1ccccc1 (stereo not drawn)
3 | 223 to 225 °C | NS(=O)(=O)c1ccc(-c2c(-c3ccccc3)[nH]c3ccccc23)cc1
4 | 142 to 144 °C | CSC1NC(=O)N(c2ccc(Cl)cc2)C(=O)N1N=C(C)C (stereo not drawn)
5 | 97 to 99 °C | CCOc1ccc(C2=NN(CCCCCC(=O)O)C(=O)[C@H]3CC=CC[C@@H]23)cc1OCC (relative stereo)
6 | 157 to 158 °C | COc1cccc(-n2c(=O)n(OCc3ccccc3)c(=O)c3cc(F)c(F)cc32)c1
7 | 153 to 155 °C | COCCOC(=O)Nc1cccc(C)c1CNc1cccn2c(C=O)c(C)nc12
8 | 143 to 144 °C | CC(C)(C)OC(=O)Nc1cccc(-c2noc(CCC(=O)O)n2)c1
9 | 143 to 144 °C | O=C(Cc1ccc(C(F)(F)F)cc1)c1ccccc1
10 | 214 to 216 °C | Oc1ccc(-c2nnc(CSCCOc3ccccc3)n2-c2ccccc2)cc1
11 | 140 to 141 °C | CCCn1nc(C(F)(F)CCC)nc1Cc1ccc(-c2ccccc2-c2nnn[nH]2)nc1
12 | 64 °C | CCN(CC)C(=O)c1cc(-c2cccs2)c2occc2c1
13 | 58 to 61 °C | Cc1ccc(C)c(C(=O)c2cc(Cl)ccc2Cl)c1
14 | 183 to 185 °C | CC(=O)NCc1ccc2c(c1)CN(C1CCC(=O)NC1=O)C2=O (stereo not drawn)
15 | 101 to 104 °C | CC1(C)NC(=O)N(Cc2ccccc2)C1=O
16 | 233 °C | CC1SC(=O)NN=C1c1ccc2c(c1)C(=Cc1ccccc1O)C(=O)N2 (stereo not drawn)

Row | melting point | SMILES
17 | 168 to 169 °C | CC(C)C[C@H](N[C@H](CCN1C(=O)c2cc3ccccc3cc2C1=O)C(=O)OC(C)(C)C)C(=O)O
18 | 103 to 107 °C | O=C(Cn1c(-c2ccc(F)cc2)ncc(NC(=O)OCc2ccccc2)c1=O)NC(Cc1ccccc1)C(=O)C(F)(F)F (stereo not drawn)
19 | 268 to 271 °C | NCCCP(=O)(O)CC(O)CN1C(=O)c2ccccc2C1=O (stereo not drawn)
20 | 106 to 108 °C | CCN(CC)c1ccc(S(=O)(=O)CCCCC(=O)O)cc1
21 | 73 to 75 °C | O=C(CC(Cc1cccc2ccccc12)C(=O)O)NCCc1c[nH]c2ccccc12 (stereo not drawn)
22 | 247 to 249 °C | Cc1cccc2oc(=O)c(=O)[nH]c12
23 | 145 to 147 °C | Cc1cc(=O)n(-c2ccccc2)c2[nH]n(-c3ccccc3)c(=O)c12
24 | 115 to 118 °C | CCCNC(=O)c1ccc(C)c(-c2nc(NCCN(C)C(=O)OC(C)(C)C)nc3c2ccc(=O)n3-c2c(F)cccc2F)c1
25 | 323 to 326 °C | Cc1nc2c3c(c(C(=O)O)cc2n1C)CCC(c1ccccc1)O3 (stereo not drawn)
26 | 172 to 175 °C | CCc1nc2c(N)nc3ccccc3c2n1CCCCS(=O)(=O)c1ncccn1
27 | 128 to 130 °C | Cn1ncc2c1-c1ccc(Cl)cc1C(c1ccccc1F)=NC2
28 | 72 to 74 °C | CCCCNC(=O)C(O[Si](C)(C)C(C)(C)C)c1ccccc1O (stereo not drawn)
29 | 270 °C | CC(C)(C)c1ccc(-c2nc3c4[nH]cnc4nc(CP(=O)(O)O)n3n2)cc1
30 | 170 to 175 °C | O=C(O)c1ccc2c(c1)C(c1ccccc1Cl)=NC=C1N=NC(C3CC3)N12 (stereo not drawn)
31 | 113 to 115 °C | O=C1c2cccc3cccc(c23)C(=O)N1CCCCBr

The remaining lines, values behind:

Row | SMILES | melting point
32 | O=C(c1ccc(Br)cc1)c1ccc(N2CCOCC2)cc1 | 178 to 179 °C
33 | O=C(O)c1cccc2cc(Cc3cc(=O)[nH]c(=S)[nH]3)ccc12 | 334 to 337 °C
34 | CCC(C(=O)c1ccc(Cl)cc1)n1ncn(-c2ccc(N3CCNCC3)cc2)c1=O (stereo not drawn) | 176 °C
35 | Cc1cc(C)c(-n2ccc3c(N)nn(C)c(=O)c32)c(C)c1 | 254 to 256 °C
36 | CC(=O)C1=CCC2C3CCC4CC(OS(=O)(=O)c5ccc(C)cc5)CCC4(C)C3CCC12C (stereo not drawn) | 146 to 148 °C
37 | CCOCCOc1c(C)cc(C#CC2(O)CN3CCC2CC3)cc1C (stereo not drawn) | 113 to 115 °C
38 | FC(F)(F)c1cccc(C2=CCN(CCc3ccc4[nH]ccc4c3)CC2)c1 | 122 to 123 °C
39 | CN(C)CCOc1ccc2c(c1)OCC21C(=O)Nc2ccccc21 (stereo not drawn) | 95 to 97 °C
40 | CC1(C)C(Cl)(Cl)C1(Cl)C(=O)O (stereo not drawn) | 148 to 150 °C
41 | c1cnc(C2CNCC(c3ncccn3)N2)nc1 (stereo not drawn) | 159 to 161 °C
42 | CCCCCCCCCCCCCCCc1cccc(OCC#CC(=O)C(F)(F)F)c1 | 35 to 36 °C
43 | COc1c(C)c(N2CCN(c3ccc(C(F)(F)F)cc3)CC2)c(C)c2c1OC(C)C2 (stereo not drawn) | 142 to 145 °C
44 | Cn1cc(C(O)(c2ccc3c(cnn3C(=O)NC3CC3)c2)C(F)(F)F)c2ccccc21 (stereo not drawn) | 116 to 118 °C
45 | CNC(=O)C1(Cl)CC1(Cl)Cl (stereo not drawn) | 71 to 72 °C
46 | Cc1nc(NC(=O)c2cnn3c(C(F)(F)F)cc(-c4ccc(C(F)(F)F)cc4)nc23)sc1S(=O)(=O)NCCN(C)C | 235 °C
47 | CCN(CC)C(=O)C=Cc1ccc(C2=C(c3ccc(O)cc3)CCc3cc(O)ccc32)cc1 | 222 °C
48 | CC(=O)OC1C2C=CC1C1N=NC21 (stereo not drawn) | 58 °C
49 | CC1(C)CCC(C)(C)c2cc(N(Cc3ccc(Cl)cc3)C(=O)Nc3ccc(C(=O)O)cc3)ccc21 | 126 to 133 °C
50 | CC(C)(C)C(OCc1ccc(Cl)cc1)c1cncnc1 (stereo not drawn) | 77 to 78.5 °C
51 | CC(C)(C)OC(=O)N1CCN(C(=O)c2ccc3n2Cc2ccccc2N(C(=O)C2=CC=C(c4ccccc4)C(C)(C(F)(F)F)C2)C3)CC1 (stereo not drawn) | 104 to 121 °C
52 | CC(CSC(=O)C(C)(C)C)C(=O)N1C(C(=O)O)CC2CCCCC21 (stereo not drawn) | 134 to 136 °C
53 | O=C1CSC(=S)N1C(=O)Nc1ccc2nc(S)sc2c1 | 212 to 217 °C
54 | CNC(=S)Nc1c(C)cccc1N1CCOCC1 | 182 to 183 °C

Row | SMILES | melting point
55 | COc1ccc(-n2nc(C(=O)O)c3c2CCCC3)cc1 | 233 to 234 °C
56 | CCCCc1nc2ccc(C(C)=O)cc2c(=O)n1Cc1ccc(-c2ccccc2-c2nnnn2C(c2ccccc2)(c2ccccc2)c2ccccc2)cc1 | 104 to 105 °C
57 | CCCCSc1c[nH]nc1C1=CCCN(C)C1 | 120 to 121 °C
58 | CCOP(=O)(OCC)c1c(-c2c(OC)ccc3ccccc23)cc2c(c1-c1ccccc1)COC2 | 123 to 125 °C
59 | CC1CCC(NC(=O)NS(=O)(=O)c2ccc(CCNC(=O)N3CCC(C)CC3=O)cc2)CC1 (stereo not drawn) | 190 to 191 °C
60 | Nc1cc(OCC(CO)OCP(=O)(O)O)nc(N)n1 (racemic) | 213 °C
61 | Cc1ccc(C(=O)n2nc(Nc3cccc(OCC#N)c3)nc2N)cc1 | 236 to 241 °C
62 | COc1cccc(N(C)C(=O)c2cnc(-c3cccc(C)c3)s2)c1 | 88 °C
63 | CCOC(=O)Nc1ncc(-c2nc3ccccc3c(=O)n2-c2ccc(OC)cc2)s1 | 222 to 224 °C
64 | N#CC1CN1C(=O)CNC(=O)c1ccccc1 (stereo not drawn) | 78 to 81 °C
65 | N#Cc1c(I)c(C(=O)Cl)c(I)c(C(=O)NCC(O)CO)c1I (stereo not drawn) | 285 to 288 °C
66 | Cn1cc(C(O)(c2ccc3c(cnn3C(=O)c3ccccc3)c2)C(F)(F)F)c2ccccc21 (stereo not drawn) | 102 to 103 °C
67 | CCOc1cc(CC)ccc1C1CCN(CCCCNC(=O)c2ccc(NC(=O)c3ccc(Cl)cc3)cc2)CC1 | 250 °C
68 | Fc1cc(Br)ccc1-c1ccc(Cl)cc1Cl | 63 to 65 °C
69 | CCOC(=O)c1ccn(-c2ccc(OC(F)(F)F)cc2)n1 | 76 to 78 °C
70 | COCC(=O)Oc1ccc(C=CNC(C)=O)cc1 | 169 to 170 °C
71 | CCN1CC(Cc2ccc(C(=O)O)cc2OC)c2cc(NC(=O)CC3CCCC3)ccc21 (stereo not drawn) | 183 to 186 °C
72 | CCOC(=O)Cc1ccc(-c2nc(COc3ccc(COc4nn(-c5ccccc5)cc4/C=C/c4coc(C(C)(C)C)n4)cc3OC)c(C)o2)cc1 | 126 to 129 °C
73 | O=C(O)c1c(Br)ccc(OCc2ccccc2Cl)c1OCc1ccccc1Cl | 156 to 158 °C
74 | CNc1ccc(C=CC(=O)c2ccc(NC)cc2)cc1 | 150 to 151 °C
75 | COc1cc(OCCOCc2ccccc2)cc2nc(-c3cc(C)nc(C)c3)[nH]c(=O)c12 | 178 to 180 °C
76 | COc1ccc(-c2c(Cl)c(CN3C(=O)CCC3=O)nc3sc4c(c23)CC(C)(C)C(=O)C4(F)F)cc1 | 200 to 202 °C
77 | c1ccc2c(c1)Cn1cccc1CN2 | 145 to 148 °C

Row | SMILES | melting point
78 | COc1ccc(C=Cc2cc3cc(Br)ccc3o2)cc1 | 190 to 194 °C
79 | Fc1ccc(-c2[nH]nc(C3=CCN4CCCC4C3)c2-c2ccncc2)cc1 (stereo not drawn) | 209 to 214 °C
80 | CC(Oc1ccc2oc3cc(Cl)ccc3c2c1)C(=O)O (stereo not drawn) | 170 to 172 °C
81 | CC1(C)CCC(C)(C)c2cc(C(=O)CNc3ccc(C(=O)O)cc3)ccc21 | 168 to 169 °C
82 | CC(=O)Nc1ccn([C@@H]2[C@H](O)[C@H](O)CC[C@H]2OC(C)=O)c(=O)n1 (racemic) | 249 °C
83 | Cc1cc(-c2ccco2)ccc1-c1cc(C(F)(F)F)nn1-c1ccc(S(C)(=O)=O)c(F)c1 | 77 to 79 °C
84 | Cc1c(F)c(F)c(F)c2c1c(=O)c(C(=O)O)cn2-c1ccc(F)cc1F | 221 to 222 °C
85 | COc1ccc(CNc2ncnc3c(N4CCOCC4)nc(N4CCC(N(C)C)CC4)nc23)cc1 | 124 to 126 °C
86 | CCOC(=O)[C@H](CNC(=O)OC(C)(C)C)NS(=O)(=O)N(C)C | 65 to 67 °C
87 | Cc1ccc(-c2nnc(N3CCC(C(N)=O)CC3)nc2-c2ccc(C)cc2)cc1 | 222 to 224 °C
88 | CC(=O)C=Cc1c(C)c(C)c(C)c2c1OCC2 | 116 °C
89 | Cc1csc(-c2ccc3c(c2)C=C(C(=O)Nc2ccc(CN(C)C4CCOCC4)cc2)CCO3)c1 | 147 to 148 °C
90 | C=CCn1c(Br)c(C[C@H](NC(C)=O)C(=O)OC)c2c(Br)c(OC)c(Br)cc21 | 191 to 192 °C
91 | N#CCCCCCNC(N)=S | 69 to 71 °C
92 | COC(=O)C(=O)c1ccc(SC)c(Cl)c1 | 67.9 to 70.2 °C
93 | COC(=O)c1ccc(-n2ccc(C)n2)cc1OC | 167 to 169 °C
94 | Cc1nc2ncnn2c(Cl)c1C1CCCC1 | 87 °C
95 | Cc1csc(C(=O)C2C(=O)N(C(N)=O)c3cc(F)cnc32)c1 (stereo not drawn) | > 250 °C
96 | O=C1c2ccccc2COc2ccc(CCOC(c3ccccc3)(c3ccccc3)c3ccccc3)cc21 | 132 to 134 °C
97 | CCCc1cn(CC(=O)O)nc1OCCCc1cn(-c2ccc(C(F)(F)F)cn2)nc1OCC | 134 to 135 °C
98 | CC1(C)Nc2nc(Cl)ccc2NC1=O | 229 °C
